Where a name gives a salt, the structure may show the parent alone. Read-outs that look alike come from different tables or passages of the source.
Columns and labels:
T1R1/T1R3 receptor = T1R1/T1R3 receptor (Felis catus, UniProt E3UMS2); assay: cell-based; conditions: for Max resp % of Ala, +IMP (0.2 mM): relative to alanine; for Thres (mM), +IMP (0.2 mM): threshold concentration in the presence of 0.2 mM IMP
Text: HEK293 cells that stably express T1R3 and inducibly express T1R1 were exposed to nucleotide derivatives alone to activate the umami receptor. Activation of the T1R1/T1R3 receptor was detected by a change in intracellular calcium levels using a calcium sensitive fluorescent dye. Cells that express T1R3 but not T1R1 were used as a control. A FLIPR® Tetra or a FlexStation® 3 was used for data capture.
(§1) HEK293 cells that stably express T1R3 and inducibly express T1R1 were exposed to nucleotide derivatives alone or in combination with one or more amino acids and/or one or more nucleotides to activate the umami receptor. Activation of the T1R1/T1R3 receptor was detected by a change in intracellular calcium levels using a calcium sensitive fluorescent dye and/or a luminescent reporter system. Cells that express T1R3 but not T1R1 were used as a control. A FLIPR® Tetra or a FlexStation® 3 was used for data capture.
HEK293 cells that stably express T1R3 and inducibly express T1R1 were exposed to transmembrane compounds alone or in combination with one or more amino acids and/or one or more nucleotides to activate the umami receptor. Activation of the T1R1/T1R3 receptor was detected by a change in intracellular calcium levels using a calcium sensitive fluorescent dye. Cells that express T1R3 but not T1R1 were used as a control. A FLIPR® Tetra or a FlexStation® 3 was used for data capture.
In each experiment, serial dilutions of up to 10 mM of the transmembrane compound were added to the T1R1/T1R3-expressing cells.

cat T1R1/T1R3 receptor = biological target: T1, cat T1R1/T1R3 receptor (Felis catus, UniProt A0ABI7Z2I4); assay: cell-based; conditions: for function as activators of T1R1/T1R3 (in words): in the presence of alanine
T1 sequence (A0ABI7Z2I4 171-420): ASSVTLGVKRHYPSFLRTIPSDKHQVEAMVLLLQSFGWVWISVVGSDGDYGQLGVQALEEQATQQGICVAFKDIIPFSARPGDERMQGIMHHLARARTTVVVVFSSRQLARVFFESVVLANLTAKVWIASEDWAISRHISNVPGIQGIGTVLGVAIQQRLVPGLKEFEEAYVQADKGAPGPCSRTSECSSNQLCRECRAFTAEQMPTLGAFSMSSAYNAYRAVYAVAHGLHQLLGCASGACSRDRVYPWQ
T1 sequence (Q49KI5 25-865 E206Q/N523D/F654L partner): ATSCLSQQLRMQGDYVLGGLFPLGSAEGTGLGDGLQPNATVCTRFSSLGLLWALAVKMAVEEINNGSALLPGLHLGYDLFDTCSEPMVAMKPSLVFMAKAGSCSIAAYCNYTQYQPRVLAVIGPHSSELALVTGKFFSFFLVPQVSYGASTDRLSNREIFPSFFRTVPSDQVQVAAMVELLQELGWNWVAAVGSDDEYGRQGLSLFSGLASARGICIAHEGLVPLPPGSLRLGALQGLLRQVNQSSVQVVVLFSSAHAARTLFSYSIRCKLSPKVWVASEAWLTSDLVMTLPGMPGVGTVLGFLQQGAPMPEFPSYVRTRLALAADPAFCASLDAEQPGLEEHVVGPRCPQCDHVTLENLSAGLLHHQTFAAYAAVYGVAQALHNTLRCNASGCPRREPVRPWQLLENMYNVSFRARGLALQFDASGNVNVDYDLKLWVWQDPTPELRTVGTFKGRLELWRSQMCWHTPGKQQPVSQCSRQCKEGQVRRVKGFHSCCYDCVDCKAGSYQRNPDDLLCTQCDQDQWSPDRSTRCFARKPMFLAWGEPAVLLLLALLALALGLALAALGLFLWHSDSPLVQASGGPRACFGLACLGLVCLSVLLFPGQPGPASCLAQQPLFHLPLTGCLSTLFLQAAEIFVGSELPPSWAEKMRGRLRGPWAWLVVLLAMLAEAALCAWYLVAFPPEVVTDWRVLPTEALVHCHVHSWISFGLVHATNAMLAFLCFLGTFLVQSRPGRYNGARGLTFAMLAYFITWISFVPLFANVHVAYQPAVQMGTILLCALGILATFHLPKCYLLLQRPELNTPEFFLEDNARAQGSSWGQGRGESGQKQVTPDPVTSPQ
Text: as §1

[1] = EC50 (mM), +Alanine (20 mM) + IMP (0.2 mM), in the presence of 20 mM alanine and 0.2 mM IMP
[2] = EC50 (mM), +IMP (0.2 mM), in the presence of 0.2 mM IMP
[3] = T1R1/T1R3 EC50 +0.2 mM IMP, +0.2 mM IMP
[4] = alone in buffer, read-out: T1R1/T1R3 EC50 alone in buffer
[5] = compound alone in buffer, read-out: EC50 (mM), +buffer (alone)
[6] = T1R1/T1R3 EC50 +20 mM L-alanine + 0.2 mM IMP, +20 mM L-alanine + 0.2 mM IMP
[7] = maximum response in relation to the response with IMP, 20 mM alanine
[8] = maximum response of the receptor, 20 mM alanine
[9] = threshold amount that results in activation of T1R1/T1R3, 20 mM alanine

## Nc1nc2c(ncn2[C@@H]2O[C@H](COP(=O)(O)OP(=O)(O)O)[C@@H](O)[C@H]2O)c(=S)[nH]1 [6-Thioguanosine-5′-O-diphosphate]
T1R1/T1R3 receptor
  Max resp % of IMP, +Alanine (20 mM): 152.8%
  Thres (mM), +Alanine (20 mM): 0.03 mM
T1R1/T1R3 receptor; [1]
  EC50: 0.28 mM
T1R1/T1R3 receptor; in the presence of 0.2 mM IMP
  Max resp ΔF/F, +IMP (0.2 mM): 0.0720 ΔF/F
  Max resp % of Ala, +IMP (0.2 mM): 9.3%

## O=C(NCCc1ccccc1)c1cccnc1 [N-phenethylnicotinamide]
T1R1/T1R3 receptor
  Max resp % of IMP, +Alanine (20 mM): 83.6%
  Thres (mM), +Alanine (20 mM): 0.1 mM
  Thres (mM), +IMP (0.2 mM): 0.03 mM
T1R1/T1R3 receptor; [1]
  EC50: 0.22 mM
T1R1/T1R3 receptor; [2]
  EC50: 0.35 mM
T1R1/T1R3 receptor; [3]
  EC50: 0.35 ± 0.1 mM
T1R1/T1R3 receptor; [4]
  EC50: 0.37 ± 0.02 mM
T1R1/T1R3 receptor; [5]
  EC50: 0.37 mM
T1R1/T1R3 receptor; in the presence of 0.2 mM IMP
  Max resp % of Ala, +IMP (0.2 mM): 149.5%

## O=C(O)C1CCCCC1C(=O)Nc1cc(Cl)cc(Cl)c1 (centres unmarked) [2-((3,5-dichlorophenyl)carbamoyl)cyclohexanecarboxylic acid]
T1R1/T1R3 receptor
  Max resp % of IMP, +Alanine (20 mM): 163.5%
  Thres (mM), +Alanine (20 mM): 0.1 mM
  Thres (mM), +IMP (0.2 mM): 0.03 mM
T1R1/T1R3 receptor; in the presence of 0.2 mM IMP
  Max resp % of Ala, +IMP (0.2 mM): 157.9%

## CCCCc1nn(CC(=O)N2CCCC2)c(=O)n1Cc1ccccc1 [4-benzyl-3-butyl-1-(2-oxo-2-(pyrrolidin-1-yl)ethyl)-1H-1,2,4-triazol-5(4H)-one]
T1R1/T1R3 receptor
  Max resp % of IMP, +Alanine (20 mM): 129.9%
  Thres (mM), +Alanine (20 mM): 0.3 mM
  Thres (mM), +IMP (0.2 mM): 0.1 mM
T1R1/T1R3 receptor; [3]
  EC50: > 0.3 mM
T1R1/T1R3 receptor; [6]
  EC50: > 0.3 mM
T1R1/T1R3 receptor; in the presence of 0.2 mM IMP
  Max resp % of Ala, +IMP (0.2 mM): 193.2%

## O=C(NCCCCNC(=O)c1cccnc1)c1cccnc1 [N,N′-(butane-1,4-diyl)dinicotinamide]
T1R1/T1R3 receptor
  Max resp % of IMP, +Alanine (20 mM): 9.5%
  Thres (mM), +Alanine (20 mM): 1.0 mM
  Thres (mM), +IMP (0.2 mM): 0.1 mM
T1R1/T1R3 receptor; in the presence of 0.2 mM IMP
  Max resp % of Ala, +IMP (0.2 mM): 49.2%

## CC(=O)Nc1ccc(C(=O)Nc2cc(-c3ccccc3)nn2CCO)cc1 [4-acetamido-N-(1-(2-hydroxyethyl)-3-phenyl-1H-pyrazol-5-yl)benzamide]
T1R1/T1R3 receptor
  Max resp % of IMP, +Alanine (20 mM): 1.8%
T1R1/T1R3 receptor; [2]
  EC50: > 1 mM
T1R1/T1R3 receptor; [3]
  EC50: > 0.1 mM
T1R1/T1R3 receptor; [6]
  EC50: > 0.1 mM
T1R1/T1R3 receptor; in the presence of 0.2 mM IMP
  Max resp % of Ala, +IMP (0.2 mM): 58.8%

## O=C(NCCc1ccccc1)c1ccccc1 [N-phenethylbenzamide]
T1R1/T1R3 receptor
  Max resp % of IMP, +Alanine (20 mM): 20.4%
  Thres (mM), +Alanine (20 mM): 0.6 mM
  Thres (mM), +IMP (0.2 mM): 0.01 mM
T1R1/T1R3 receptor; [1]
  EC50: 0.09 mM
T1R1/T1R3 receptor; EC50 (mM), +Alanine (20 mM), in the presence of 20 mM alanine
  EC50: > 1 mM
T1R1/T1R3 receptor; [2]
  EC50: 0.12 mM
T1R1/T1R3 receptor; [3]
  EC50: 0.12 ± 0.03 mM
T1R1/T1R3 receptor; T1R1/T1R3 EC50 +20 mM L-alanine, +20 mM L-alanine
  EC50: > 1 mM
T1R1/T1R3 receptor; [4]
  EC50: 0.33 ± 0.01 mM
T1R1/T1R3 receptor; [5]
  EC50: 0.33 mM
T1R1/T1R3 receptor; in the presence of 0.2 mM IMP
  Max resp ΔF/F, +IMP (0.2 mM): 0.9800 ΔF/F
  Max resp % of Ala, +IMP (0.2 mM): 126.0%

## CCOC(=O)NC(=O)C(c1ccccc1)c1ccccc1 [Ro 01-6128, reference compound]
T1R1/T1R3 receptor
  Max resp % of IMP, +Alanine (20 mM): 74.8%
  Thres (mM), +Alanine (20 mM): 0.3 mM
  Thres (mM), +IMP (0.2 mM): 0.01 mM
T1R1/T1R3 receptor; in the presence of 0.2 mM IMP
  Max resp % of Ala, +IMP (0.2 mM): 199.7%
T1R1/T1R3 receptor; overall call: active or N/A (not active) on T1R1/T1R3
  Activity: active

## Nc1nc2c(ncn2[C@@H]2O[C@H](COP(=O)(O)OP(=O)(O)O)[C@@H](O)[C@H]2O)c(=S)[nH]1 [6-Thioguanosine-5′-O-disphosphate]
Cat T1R1/T1R3 receptor
  Threshold: 0.03 mM

## Nc1ncnc2c1ncn2C1OC(COP(=O)(O)OS(=O)(=O)O)C(O)C1O (centres unmarked) [Adenosine 5′-phosphosulfate sodium salt, Adenosine 5′-phosphosulfate]
Cat T1R1/T1R3 receptor
  Threshold: 0.008 mM

## Nc1ncnc2c1nc(Cl)n2[C@@H]1O[C@H](COP(=O)(O)O)C(O)C1O (some centres unmarked) [8-Chloroadenosine-5′-O-monophosphate]
Cat T1R1/T1R3 receptor
  Max resp. (ΔF/F): 0.79 ΔF/F
  Max. resp. % of IMP: 63.6 % of IMP
  Threshold: 0.2 mM
Cat T1R1/T1R3 receptor; +Alanine (20 mM)
  Activity: active

## Nc1nc2c(ncn2[C@@H]2O[C@H](COP(=O)(O)O)[C@@H](O)[C@H]2O)c(=S)[nH]1 [6-Thiogaunosine-5′-O-monophosphate]
Cat T1R1/T1R3 receptor
  Max resp. (ΔF/F): 1.3614 ΔF/F
  Max. resp. % of IMP: 140.6 % of IMP

## 2′-, 3′-O—(N′-methylanthraniloyl)guanosine-5′-O-monophosphate
Cat T1R1/T1R3 receptor
  function as activators of T1R1/T1R3 (in words): activators of T1R1/T1R3

## Nc1nc2c(ncn2[C@H]2O[C@@H](COP(=O)(O)O)[C@H](O)[C@@H]2O)c(=O)[nH]1 (stereo in doubt) [guanosine monophosphate, reference compound]
Cat T1R1/T1R3 receptor
  Activity: active
  EC50: 30 µM
  Threshold: 0.008 mM

## O=P(O)(O)OCC1OC(n2cnc3c(Cl)ncnc32)C(O)C1O (centres unmarked) [6-chloropurineriboside-5′-O-monophosphate]
Cat T1R1/T1R3 receptor
  EC50: 2 µM
  Threshold: 0.0005 mM
  function as activators of T1R1/T1R3 (in words): activators of the T1R1/T1R3 receptor

## O=P(O)(O)OP(=O)(O)OP(=O)(O)OC[C@H]1O[C@@H](n2cnc3c(O)ncnc32)[C@H](O)[C@@H]1O [inosine triphosphate (ITP), inosine triphosphate]
Cat T1R1/T1R3 receptor
  EC50: 80 µM

## 2′-,3′-O-(N′-Methylanthraniloyl) guanosine-5′-O-monophosphate
Cat T1R1/T1R3 receptor; [7]
  Max. resp. % of IMP: 74.3 % of IMP
Cat T1R1/T1R3 receptor; [8]
  Max resp. (ΔF/F): 0.7190 ΔF/F
Cat T1R1/T1R3 receptor; [9]
  Threshold: 0.0014 mM

## Nc1nc2c(ncn2C2OC(COP(=O)(O)N3CCOCC3)C(O)C2O)c(=O)[nH]1 (centres unmarked) [Guanosine 5′-monophosphomorpholidate 4-morpholine-N,N′-dicyclohexylcarboxamidine salt]
Cat T1R1/T1R3 receptor; +Alanine (20 mM)
  Activity: active
Cat T1R1/T1R3 receptor; [7]
  Max. resp. % of IMP: 52.9 % of IMP
Cat T1R1/T1R3 receptor; [8]
  Max resp. (ΔF/F): 0.5121 ΔF/F
Cat T1R1/T1R3 receptor; [9]
  Threshold: 0.325 mM

## 2′-,3′-O-(N′-Methylanthraniloyl)guanosine-5′-O-monophosphate
Cat T1R1/T1R3 receptor; +Alanine (20 mM)
  Activity: active
Cat T1R1/T1R3 receptor; [7]
  Max. resp. % of IMP: 74.3 % of IMP
Cat T1R1/T1R3 receptor; [8]
  Max resp. (ΔF/F): 0.7190 ΔF/F
Cat T1R1/T1R3 receptor; [9]
  Threshold: 0.0014 mM

## Nc1nc2c(ncn2[C@H]2C[C@H](O)[C@@H](COP(O)(O)=S)O2)c(=O)[nH]1 [2′-Deoxyguanosine-5′-O-monophosphorothioate]
Cat T1R1/T1R3 receptor
  Activity: active
  Threshold: 0.005 mM
  function as activators of T1R1/T1R3 (in words): activators of T1R1/T1R3
